Laboratory results as given in ChEMBL document CHEMBL4295262, “Evaluation of the utility of stem-cell derived cardiomyocytes for drug proarrhythmic potential” (2019).
Blank lines part the entries; values can stand above or below the compound they belong to.

How the values were obtained:
Settings in all cases: human, ipsc-cm
[1] = (§1) Electrical activity assay on cell lines treated with a given drug. DMSO was used as a vehicle and a control, unblinded dofetilide was used as a control.
[2] = as §1; remark: listed apart in the source
[3] = as §1; assay type: ADME, cell-based
[4] = as §1; remark: listed apart in the source
[5] = as §1; assay type: ADME, cell-based; set-up: FPDc: unit not given here
[6] = 0.09507 µM, concentration (um) 0.0950736 uM
[7] = 0.3004 µM, concentration (um) 0.300433 uM
[8] = 0.9494 µM, concentration (um) 0.949367 uM

Structure (SMILES): CN1CCN(C2=Nc3cc(Cl)ccc3Nc3ccccc32)CC1 [CLOZAPINE]
APDc ([1]; 0.09507 µM): 47.87
FPD measurement ([1]; 0.09507 µM): 47.87 FPDc
APDc ([1]; 0.3004 µM): 55.24
FPD measurement ([1]; 0.3004 µM): 55.24 FPDc
APDc ([1]; 0.9494 µM): 62.1
FPD measurement ([1]; 0.9494 µM): 62.1 FPDc
APDc ([1]; 3 µM): 73.69
FPD measurement ([1]; 3 µM): 73.69 FPDc
FPD measurement ([2]; 0.09507 µM): 1 Values Out Of 1 Were Excluded Due To Quiescence Or 0 Fpdc
FPDc ([2]; 0.09507 µM): 1 Values Out Of 1 Were Excluded Due To Quiescence Or 0 Fpdc
FPD measurement ([2]; 0.3004 µM): 1 Values Out Of 1 Were Excluded Due To Quiescence Or 0 Fpdc
FPDc ([2]; 0.3004 µM): 1 Values Out Of 1 Were Excluded Due To Quiescence Or 0 Fpdc
FPD measurement ([2]; 0.9494 µM): 1 Values Out Of 1 Were Excluded Due To Quiescence Or 0 Fpdc
FPDc ([2]; 0.9494 µM): 1 Values Out Of 1 Were Excluded Due To Quiescence Or 0 Fpdc
FPD measurement ([2]; 3 µM): 1 Values Out Of 1 Were Excluded Due To Quiescence Or 0 Fpdc
FPDc ([2]; 3 µM): 1 Values Out Of 1 Were Excluded Due To Quiescence Or 0 Fpdc
FPD measurement [3, 6]: 5 Values Out Of 5 Were Excluded Due To Quiescence Or 0 Apdc
FPDc [3, 6]: 25.04
FPD measurement [3, 7]: 5 Values Out Of 5 Were Excluded Due To Quiescence Or 0 Apdc
FPDc [3, 7]: 24.94
FPD measurement [3, 8]: 5 Values Out Of 5 Were Excluded Due To Quiescence Or 0 Apdc
FPDc [3, 8]: 25.07
FPD measurement ([3]; 3 µM, concentration (um) 3 uM): 5 Values Out Of 5 Were Excluded Due To Quiescence Or 0 Apdc
FPDc ([3]; 3 µM, concentration (um) 3 uM): 22.78
FPDc ([4]; 0.09507 µM): 68.88
FPD measurement ([4]; 0.3004 µM): 5 Values Out Of 5 Were Excluded Due To Quiescence Or 0 Apdc
FPDc ([4]; 0.3004 µM): 59.23
FPD measurement ([4]; 0.9494 µM): 5 Values Out Of 5 Were Excluded Due To Quiescence Or 0 Apdc
FPDc ([4]; 0.9494 µM): 63.68
FPDc ([4]; 3 µM): 65.29

APDc ([1]; 0.1 µM): 53
FPD measurement ([1]; 0.1 µM): 53 FPDc
APDc ([1]; 1 µM): 57.83
FPD measurement ([1]; 1 µM): 57.83 FPDc
APDc ([1]; 10 µM): 63.09
FPD measurement ([1]; 10 µM): 63.09 FPDc
APDc ([1]; 100 µM): 74.46
FPD measurement ([1]; 100 µM): 74.46 FPDc
FPDc ([5]; 0.1 µM, concentration (um) 0.1 uM): 43.08
FPDc ([5]; 1 µM, concentration (um) 1 uM): 54.07
FPDc ([5]; 10 µM, concentration (um) 10 uM): 64.26
FPDc ([5]; 100 µM, concentration (um) 100 uM): 63.72
FPDc ([4]; 0.1 µM): 67.46
FPDc ([4]; 1 µM): 77.46
FPDc ([4]; 10 µM): 87.68
FPDc ([4]; 100 µM): 95.17
Structure (SMILES): Cc1cccc(C)c1OCC(C)N (centres undefined) [MEXILETINE]
FPD measurement ([2]; 0.1 µM): 1 Values Out Of 1 Were Excluded Due To Quiescence Or 0 Fpdc
FPDc ([2]; 0.1 µM): 1 Values Out Of 1 Were Excluded Due To Quiescence Or 0 Fpdc
FPD measurement ([2]; 1 µM): 1 Values Out Of 1 Were Excluded Due To Quiescence Or 0 Fpdc
FPDc ([2]; 1 µM): 1 Values Out Of 1 Were Excluded Due To Quiescence Or 0 Fpdc
FPD measurement ([2]; 10 µM): 1 Values Out Of 1 Were Excluded Due To Quiescence Or 0 Fpdc
FPDc ([2]; 10 µM): 1 Values Out Of 1 Were Excluded Due To Quiescence Or 0 Fpdc
FPD measurement ([2]; 100 µM): 1 Values Out Of 1 Were Excluded Due To Quiescence Or 0 Fpdc
FPDc ([2]; 100 µM): 1 Values Out Of 1 Were Excluded Due To Quiescence Or 0 Fpdc
